Here are results for two compounds from patent publication US12390481B2, “Sialic acid compositions for the use of inhibiting and treating coronavirus infection” (LifeScience AS, priority 2020, dated 2025).

One data set relates to CoV-OC43. Put plainly: in vitro inhibition of infection of cells with test virus CoV-OC43. The data set is classed as cell-based. The settings on record: for infection of cells by CoV-OC43 at different concentrations: different dilutions of the sialic acid, two replicates, FIGS. 1 and 2. The protocol:
FIG. 1 provides data from one replicate showing infection of cells by CoV-OC43 at different concentrations of either Neu5Ac or Neu5Gc.
FIG. 2 provides data from another replicate showing infection of cells by CoV-OC43 at different concentrations of either Neu5Ac or Neu5Gc.
FIG. 3 provides data from an experiment where inhibition of infection by Neu5Ac is compared to a control sugar, galactose.
The effectiveness of sialic acid (Neu5Ac or Neu5Gc) in preventing corona virus infection was evaluated in vitro in a model system. Different dilutions of the sialic acids were tested for their ability to inhibit infection of cells with the test virus CoV-OC43. FIGS. 1 and 2 provide data from two replicates showing infection of cells by CoV-OC43 at different concentrations of either Neu5Ac or Neu5Gc (Neu5Ac left hand bars, Neu5Gc right hand bars).

The conditions of data set [1]: according to Schalcter (2017), cited from earlier work.

Take `CC(=O)N[C@H]1[C@H]([C@H](O)[C@H](O)CO)OC(O)(C(=O)O)C[C@@H]1O` (some centres unmarked) [Neu5Ac, N-acetyl neuraminic acid]: in the data set on CoV-OC43 (CoV-OC43, FIG. 3), the “inhibition of infection compared to a control sugar, galactose” value is on record as “prevents infection as compared to the control”. For the same compound, in the data set on CoV-OC43, the “infection of cells by CoV-OC43 at different concentrations” value is given as “inhibited in a dose-dependent manner”. The excretion via urine result in data set [1] is “quickly excreted via urine”. In data set [1] (after ingestion), the absorption after ingestion result is reported as “rapidly absorbed”.

`O=C(CO)N[C@H]1[C@H]([C@H](O)[C@H](O)CO)OC(O)(C(=O)O)C[C@@H]1O` (some centres unmarked) [Neu5Gc, N-glycolylneuraminic acid]: in the data set with CoV-OC43, the “infection of cells by CoV-OC43 at different concentrations” value is reported as “inhibited in a dose-dependent manner”.
